Experimental data as given in patent US20080009025A1, “PROTEIN KINASE REGULATION” (priority 1999, published 2008).
Where a SMILES comes first, the peptide text is derived from it.

How the values were obtained:
GST-PDK1 = target: T1, GST-PDK1 (Homo sapiens, UniProt O15530); experiment: Thermal denaturation of PDK1 (TM50); type: biochemical; settings: wild type GST-PDK1; heated 2 min
T1 construct: Full length PDK1 (residues 1-556); made in house; host or cells: 293 cells
T1 sequence (O15530 1-556): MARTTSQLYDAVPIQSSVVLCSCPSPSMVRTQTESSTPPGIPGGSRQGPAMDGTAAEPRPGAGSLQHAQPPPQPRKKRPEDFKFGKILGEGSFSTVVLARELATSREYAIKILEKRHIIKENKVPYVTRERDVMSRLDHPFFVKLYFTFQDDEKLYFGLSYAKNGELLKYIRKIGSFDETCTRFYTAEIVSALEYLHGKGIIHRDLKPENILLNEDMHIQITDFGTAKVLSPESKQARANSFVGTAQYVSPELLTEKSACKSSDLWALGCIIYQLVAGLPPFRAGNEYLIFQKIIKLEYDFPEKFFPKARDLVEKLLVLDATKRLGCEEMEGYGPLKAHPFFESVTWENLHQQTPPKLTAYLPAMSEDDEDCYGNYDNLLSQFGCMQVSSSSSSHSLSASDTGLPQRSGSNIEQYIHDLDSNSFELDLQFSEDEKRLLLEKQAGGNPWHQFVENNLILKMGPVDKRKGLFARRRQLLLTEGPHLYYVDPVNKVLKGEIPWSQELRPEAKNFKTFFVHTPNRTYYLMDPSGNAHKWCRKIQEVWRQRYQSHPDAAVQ
Description: A further aspect of the invention provides the use of an interacting polypeptide as defined above, for example comprising the amino acid sequence Phe/Tyr-Xaa-Xaa-Phe/Tyr or an interacting compound of the invention in a method of stabilising a protein kinase having a hydrophobic pocket in the position equivalent to the hydrophobic pocket of Protein Kinase A (PKA) that is defined by residues including Lys76, Leu116, Val80 and/or Lys111 of full-length mouse PKA, wherein the protein kinase is exposed to the compound or polypeptide. Stabilisation may be measured by measuring the TM50 value. The TM50 value is the temperature at which heating for two minutes produces a 50% reduction in protein kinase activity (measured using any appropriate substrate) compared with the protein kinase activity before such heating, as described in Example 2. An increase in the TM50 value, for example by at least about 1, 2, 3, 4, 5, 6, 7, 8, 9, 10 or 15° C. indicates stabilisation.
FIG. 12. PDK1 is activated and stabilised through its interaction with PIFtide. (A) GST-PDK1 activity was measured in the presence of increasing concentrations of wild type (wt) PIFtide (closed circles) or a mutant D978A PIFtide (open circles) using the synthetic peptide substrate termed T308tide, as described in Material and Methods. The data was fitted to a hyperbola using the Kaleidagraph™ software. […]

Myc-PDK1 = target: T2, Myc-PDK1 (Homo sapiens, UniProt O15530); experiment: Glutathione-Sepharose pull-down of Myc-PDK1 with GST-PIF from 293 cells; type: binding
T2 construct: expressed in transfected cells; host or cells: 293 cells
T2 sequence (O15530 1-556): T1 sequence (O15530 1-556)
Experimental: FIG. 9. Effect of mutation of conserved residues in the PIF-binding pocket of PDK1 on the ability to interact with PIF. 293 cells were transiently transfected with DNA constructs expressing GST-PIF and either wild type Myc-PDK1 or the indicated mutants of PDK1. 36 h post transfection the cells were lysed and GST-PIF purified by affinity chromatography on glutathione-Sepharose beads. 2 μg of each protein was electrophoresed on a 10% SDS/polyacrylamide gel and either stained with Coomassie blue (A and E) or immunoblotted using an anti Myc antibody to detect Myc-PDK1 (B and F). To establish that the wild type PDK1 and mutant proteins were expressed at a similar level, 10 μg of total cell lysate was electrophoresed on a 10% SDS/polyacrylamide gel and immunoblotted using anti-Myc antibodies (C and G). Duplicates of each condition are shown. Similar results were obtained in 3 to 5 separate experiments. […]
A pEBG2T plasmid encoding GST fused to the last 77 residues of PRK2 termed GST-PIF (10 μg) and pCMV5 plasmid expressing Myc-PDK1 wild type or the indicated mutants of PDK1 (10 μg), were co-transfected into a 10 cm diameter dish of 293 cells using a modified calcium phosphate method. […] The gels were either stained with Coomassie blue, or analysed by immunoblotting with anti Myc antibodies.

complex with wild type PDK1 (Myc-PDK1) | Compound | increase of TM50 (GST-PDK1)
– | CC[C@H](C)[C@H](NC(=O)[C@H](Cc1ccc(O)cc1)NC(=O)[C@H](CC(=O)O)NC(=O)[C@H](Cc1ccccc1)NC(=O)[C@H](CC(=O)O)NC(=O)[C@H](CCCNC(=N)N)NC(=O)[C@H](Cc1ccccc1)NC(=O)[C@H](CCSC)NC(=O)[C@H](CCC(=O)O)NC(=O)[C@H](CCC(N)=O)NC(=O)[C@H](CCC(=O)O)NC(=O)[C@H](CCC(=O)O)NC(=O)[C@H](CCC(=O)O)NC(=O)[C@H](CO)NC(=O)[C@H](CC(C)C)NC(=O)[C@@H](NC(=O)[C@H](CCCNC(=N)N)NC(=O)[C@@H]1CCCN1C(=O)[C@H](CCC(=O)O)NC(=O)[C@@H](N)CCCNC(=N)N)[C@@H](C)CC)C(=O)N[C@@H](C)C(=O)N[C@@H](CC(=O)O)C(=O)N[C@@H](Cc1c[nH]c2ccccc12)C(=O)N[C@@H](CS)C(=O)O [PIFtide] (H-REPRILSEEEQEMFRDFDYIADWC-OH; N-terminus and C-terminus assumed) | 8-10 °C
a complex was readily observed | GST-PIF: glutathione S-transferase fused to the last 77 residues of PRK2 (PIF) | –
